Experimental data from patent US20120196830A1, “KITS AND IMPROVED COMPOSITIONS FOR TREATING LOWER URINARY TRACT DISORDERS” (priority 2005, published 2012).
Like-named read-outs stand apart in the source and are kept apart here.

Legend:
[1] = Uncharged fraction of lidocaine by Henderson-Hasselbalch equation; format: physicochemical
Source text: For the acute-acting anesthetic to function properly, it typically needs to be in a pH environment that enables the chemical form of the drug to be neutral thereby allowing the molecule to traverse the membranes and gain access to the neurons underlying the bladder epithelium. To achieve this pH, a buffer must be provided so that the pH is sufficiently near to the isoelectric point of the chosen anesthetic to ensure that a sufficient portion of the acute-acting anesthetic is present in an uncharged state. A sufficient portion can minimally be 20% up to 100% in its uncharged state and those skilled in the art can use the drug's isoelectric point and the Henderson-Hasselbalch equation to calculate the minimal pH of the solution to achieve the 20% minimal uncharged amount. Preferably, the pH of the solution is such that at least about 40% of the acute-acting anesthetic is present in an uncharged state. […]. This buffering can be achieved by the addition of bicarbonate buffer, Tris (Tris(hydroxymethyl)aminomethane) buffer, MOPS buffer (3-(N-morpholino)propanesulfonic acid), HEPES (N-(2-hydroxyethyl)piperazine-N′-(2-ethanesulfonic acid) buffer, ACES (2-[(2-amino-2-oxoethyl)amino]ethanoesulfonic acid) buffer, ADA (N-(2-acetamido)-2-iminodiacetic acid) buffer, AMPSO (3-[(1,1-dimethyl-2-hydroxyethyl)amino]-2-propanesulfonic acid) buffer, BES (N,N-bis(2-hydroxyethyl)-2-aminoethanesulfonic acid buffer, Bicine (N,N-bis(2-hydroxyethylglycine) buffer, Bis-Tris (bis-(2-hydroxyethyl)imino-tris(hydroxymethyl)methane buffer, CAPS (3-(cyclohexylamino)-1-propanesulfonic acid) buffer, CAPSO (3-(cyclohexylamino)-2-hydroxy-1-propanesulfonic acid) buffer, CHES (2-(N-cyclohexylamino)ethanesulfonic acid) buffer, DIPSO (3-[N,N-bis(2-hydroxyethyl)amino]-2-hydroxy-propanesulfonic acid) buffer, HEPPS(N-(2-hydroxyethylpiperazine)-N′-(3-propanesulfonic acid), buffer, HEPPSO(N-(2-hydroxyethyl)piperazine-N′-(2-hydroxypropanesulfonic acid) buffer, MES (2-(N-morpholino)ethanesulfonic acid) buffer, triethanolamine buffer, imidazole buffer, glycine buffer, ethanolamine buffer, phosphate buffer, MOPSO (3-(N-morpholino)-2-hydroxypropanesulfonic acid) buffer, PIPES (piperazine-N,N′-bis(2-ethanesulfonic acid) buffer, POPSO (piperazine-N,N′-bis(2-hydroxypropaneulfonic acid) buffer; TAPS(N-tris[hydroxymethyl)methyl-3-aminopropanesulfonic acid) buffer, TAPSO (3-[N-tris(hydroxymethyl)methylamino]-2-hydroxy-propanesulfonic acid) buffer, TES (N-tris(hydroxymethyl)methyl-2-aminoethanesulfonic acid) buffer, tricine (N-tris(hydroxymethyl)methylglycine buffer), 2-amino-2-methyl-1,3-propanediol buffer, 2-amino-2-methyl-1-propanol buffer, or another buffer that can buffer the composition to be administered at the appropriate pH value. The buffer to be selected, and the concentration of the buffer to be used, can be chosen by one of ordinary skill in the art to buffer the composition to be administered at a pH value that is close to the isoelectric point of the local anesthetic. […]. For bupivacaine, it is 8.1. For etidocaine, it is 7.7. For flecamide, it is 9.3. Typically, the pH achieved by the use of the buffer is between about 7.0 and about 12.0. More typically, the pH achieved by the use of the buffer is between about 7.0 and about 9.5. Typically, when bicarbonate buffer is used, it is sodium bicarbonate buffer; however, other counterions can be used as described above.

[2] = test system: IC patients; conditions: intravesical instillations; cited from earlier work
[3] = test system: cancer patients; conditions: cited from earlier work
[4] = test system: IC patients; conditions: intravesical, interstitial cystitis; cited from earlier work

CCN(CC)CC(=O)Nc1c(C)cccc1C [lidocaine]
lidocaine uncharged ([1]; pH 6.6): 5%
lidocaine uncharged ([1]; pH 7.0): 10%
lidocaine uncharged ([1]; pH 7.2): 20%
lidocaine uncharged ([1]; pH 7.5): 30%
lidocaine uncharged ([1]; pH 7.7): 40%
lidocaine uncharged ([1]; pH 7.9): 50%

C[S+](C)[O-] [DMSO, dimethylsulfoxide]
IC patients treated with benefit [2]: ~50%

O=S(=O)(O)CCS [Mesnex, mesna]
frequency of adverse events (all AEs) ([3]; IV): 85%
frequency of adverse events (all AEs) ([3]; oral): 89%

heparin
patients treated in whom effective [4]: approximately 50%
